The record followed here is patent publication EP4782449A1, “TRICYCLIC PYRIDINE COMPOUND ACTING AS SARM1 ENZYME ACTIVITY INHIBITOR, AND USE THEREOF” (Artivila (ShenZhen) Innovation Center, Ltd., priority 2023, dated 2025).

Experiment [1] concerns the target T1, SARM1 (Homo sapiens, UniProt Q6SZW1).
T1 construct: inventors produced full-length SARM1 for NAD enzyme activity experiments, and used it for screening; His (C); made in house; host or cells: HEK293 cells, transient transfection; supernatant of digitonin lysate, no further purification described
T1 sequence (Q6SZW1 28-724): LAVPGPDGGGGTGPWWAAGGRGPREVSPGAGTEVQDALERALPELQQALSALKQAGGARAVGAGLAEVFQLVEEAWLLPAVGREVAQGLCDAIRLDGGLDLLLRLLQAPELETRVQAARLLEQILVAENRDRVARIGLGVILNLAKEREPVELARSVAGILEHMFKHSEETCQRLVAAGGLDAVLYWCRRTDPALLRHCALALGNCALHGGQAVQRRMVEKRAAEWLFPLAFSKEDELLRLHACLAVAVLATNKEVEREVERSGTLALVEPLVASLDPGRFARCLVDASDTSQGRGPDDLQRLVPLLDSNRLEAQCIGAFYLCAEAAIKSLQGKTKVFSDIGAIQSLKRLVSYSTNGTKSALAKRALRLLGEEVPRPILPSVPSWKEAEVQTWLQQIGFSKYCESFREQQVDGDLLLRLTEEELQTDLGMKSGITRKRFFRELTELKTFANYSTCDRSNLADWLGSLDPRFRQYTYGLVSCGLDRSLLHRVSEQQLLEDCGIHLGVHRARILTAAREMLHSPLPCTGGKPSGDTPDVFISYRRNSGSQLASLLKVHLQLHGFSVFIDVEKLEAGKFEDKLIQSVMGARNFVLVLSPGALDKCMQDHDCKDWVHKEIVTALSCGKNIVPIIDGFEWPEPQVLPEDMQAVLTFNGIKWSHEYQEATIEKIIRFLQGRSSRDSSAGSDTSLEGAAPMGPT
As to the kind of experiment: In vitro biochemical assay for inhibiting SARM1 enzyme activity (PC6 fluorescence, NADase). Particulars: full-length SARM1 from transfected HEK293 cells; 50 µM NAD, 50 µM PC6, 50 µM NMN activator; room temperature, 30 minutes; read-out: IC50. On the procedure: The gene sequence of SARM1 protein was amplified using PCR, and the PCR amplification product was constructed into pcDNA3.1-HIS-C plasmid. The above construction was completed by YouBio(Hunan, China). HEK293 cells were cultured in 10 cm dishes using DMEM, and the cells were transfected with 15 μg pcDNA3.1-SARM[…]-C expression plasmid on the following day. Cells were collected 48 hours after transfection, and SARM1 protein expressed in the cells was obtained by digitonin lysis for in vitro activity assay experiments. The specific procedure was as follows: Cells were digested with trypsin-EDTA, then centrifuged at 1000 rpm for 5 minutes, washed once with PBS, and then resuspended in PBS containing 100 μM digitonin, with 0.6 mL PBS for the cells in per 10 cm dish, and lysed for 5 minutes. […] Then the supernatant containing SARM1 protein was collected by centrifugation at 5000 rpm for 10 minutes. […] A group without inhibitor was used as control group. All mixtures were incubated at room temperature for 10 minutes. Then, 50 μM NAD and 50 μM PC6 as substrates and 50 μM NMN as an activator were added to the SARM1 protein incubated with the inhibitor, and the reaction was carried out at room temperature for 30 minutes. The concentrations of each component were the final concentrations in the reaction system. […] Finally, the reaction rate was used to represent the protein activity and calculate the half-maximal inhibitory concentration.

Experiment [2] concerns dorsal root ganglion explants. As to the kind of experiment: Axonal Wallerian degeneration assay in mouse DRG explant culture. In kind it is cell-based, C57BL/6 male mice. To be noted: 10 µM test compound, 2 hours pretreatment, axons transected, images at 0 hour and 24 hours. The source says: The experimental method was based on Gerdts J et al. (Gerdts J, Sasaki Y, Vohra B, Marasa J, Milbrandt J. Image-based screening identifies novel roles for IkappaB kinase and glycogen synthase kinase 3 in axonal degeneration. J Biol Chem. 2011 Aug 12;286(32):28011-8).
Dorsal root ganglia were dissected from 2-month-old C57BL/6 male mice and placed in 35 mm culture dishes containing pre-cooled HBSS buffer. Excess tissue from each dorsal root ganglion was removed and cut into 2-3 explants using a scalpel, and the explants were planted in wells of a 96-well plate coated with 100 ng/mL Matrigel (Corning). 100 µL of DRG culture medium (Neurobasal medium (Gibco) containing 2% B-27 (Gibco), 1% GlutaMax (Gibco), and 10 ng/mL NGF (MCE)) was added, then cultured in a 37°C incubator for one week, with medium change on day 4, and experiments were performed on day 8.
0.1 µL of 10 mM test compound was dissolved in 100 µL DRG culture medium to prepare new culture medium containing 10 µM test compound. The culture medium in the 96-well plate was aspirated and new culture medium containing the test compound was added. Then the dorsal root ganglion explants were incubated with the medium in a 37°C incubator for 2 hours for pre-protection. After 2-hour pretreatment, a glass electrode was used to transect axons in the area near the tissue block, and bright-field images of axons in the same area were captured at 0 hour and 24 hours post axonal degeneration using a 20x objective lens of a microscope (Olympus). Axonal integrity was evaluated using an in-house developed script.

For the compound `N#Cc1ccc(CCC(=O)Nc2ccc3c(c2)COc2cnccc2-3)cc1F` [Compound 30], in experiment [1], the IC50 is 100 to 1000 nM. Besides, the “Degree of Protection Against Axonal Wallerian Degeneration” value (“Degree” below) in experiment [2] is “A (substantial protection (A) >50%)”.
On to `COc1ccc(CCC(=O)Nc2ccc3c(c2)COc2cnccc2-3)cc1` [Compound 78], for which the IC50 in experiment [1] was in the range of 100 to 1000 nM. Moreover, the “Degree” value in experiment [2] is given as “A (substantial protection (A) >50%)”.
Taken in the same sequence, the figures for `O=C1C(Cc2ccc3c(c2)CC3)CCN1c1ccc2c(c1)COc1cnccc1-2` (stereo not drawn) [Compound 19] were 1000 to 10000 nM and “A (substantial protection (A) >50%)”.
With `O=C1C(Cc2ccc(Cl)cc2F)CCN1c1ccc2c(c1)COc1cnccc1-2` (stereo not drawn) [Compound 3], in experiment [1], the IC50 lay within 1000 to 10000 nM.
`CC1Oc2cnccc2-c2ccc(N3CCC(Cc4ccc(F)cc4)C3=O)cc21` (stereo not drawn) [Compound 147, 3-(4-fluorobenzyl)-1-(6-methyl-6H-isochromeno[3,4-c]pyridin-8-yl)pyrrolidin-2-one]: the IC50 in experiment [1] is less than 100 nM. The “Degree” value in experiment [2] is “A (substantial protection (A) >50%)”.
On to `O=C(CCc1cc(F)c(Cl)c(F)c1)Nc1ccc2c(c1)COc1cnccc1-2` [Compound 43], for which, in experiment [1], the half-inhibitory concentration (IC50) was less than 100 nM.
As to `Cc1cncc2c1-c1ccc(NC(=O)CCc3ccc(F)cc3)cc1CO2` [Compound 130, 3-(4-fluorophenyl)-N-(1-methyl-6H-isochromeno[3,4-c]pyridin-8-yl)propanamide], the concentration for half-maximal inhibition (IC50) in experiment [1] is less than 100 nM. In addition, the “Degree” value in experiment [2] is listed as “B (partial protection (B): 20% to 50%)”.
For `O=C1C(Cc2cccc3c2CCCC3)CCN1c1ccc2c(c1)COc1cnccc1-2` (stereo not drawn) [Compound 56], the IC50 in experiment [1] lay within 1000 to 10000 nM. Moreover, the “Degree” value in experiment [2] is given as “B (partial protection (B): 20% to 50%)”.
Regarding `O=C1C(Cc2ccc(F)cc2)CCN1c1cc2c(cn1)-c1ccncc1OC2` (stereo not drawn) [Compound 128], the IC50 in experiment [1] was less than 100 nM. Further, the “Degree” value in experiment [2] is reported as “A (substantial protection (A) >50%)”.
Regarding `O=C(NCc1ccccc1)Nc1ccc2c(c1)COc1cnccc1-2` [Compound 71], the IC50 in experiment [1] lay in the range of 1000 to 10000 nM. In addition, in experiment [2], the “Degree” value was “B (partial protection (B): 20% to 50%)”.
Take `O=C(CCc1ccccc1)Nc1ccc2c(c1)COc1cnccc1-2` [Compound 38]: in experiment [1], the half-inhibitory concentration (IC50) was less than 100 nM.
With `Cc1ccc(CC2CCN(c3ccc4c(c3)COc3cnccc3-4)C2=O)cc1` (stereo not drawn) [Compound 8], in experiment [1], the half-maximal inhibitory concentration (IC50) lay within 1000 to 10000 nM.
`CC(Cc1ccc(F)cc1)C(=O)Nc1ccc2c(c1)COc1cnccc1-2` (stereo not drawn) [Compound 73]: the IC50 in experiment [1] was in the range of 100 to 1000 nM. For the same compound, in experiment [2], the “Degree” value is listed as “A (substantial protection (A) >50%)”.
Turning to `O=C1[C@H](Cc2ccc(F)cc2)CCN1c1ccc2c(c1)COc1cnccc1-2` [Compound 154], in experiment [1], the IC50 is less than 100 nM.
Same read-out and setting: for `O=C(NCc1cc(F)cc(F)c1)Nc1ccc2c(c1)COc1cnccc1-2` [Compound 48] the value was 100 to 1000 nM.
Turning to `O=C1[C@@H](Cc2ccc(F)cc2)CCN1c1ccc2c(c1)COc1cnccc1-2` [Compound 155], in experiment [1], the concentration for half-maximal inhibition (IC50) was less than 100 nM.
On the same count and under the same terms, for `O=C(NCc1ccc(Cl)nc1)Nc1ccc2c(c1)COc1cnccc1-2` [Compound 66] the value was 100 to 1000 nM; for `O=C(Nc1ccc2c(c1)COc1cnccc1-2)C(F)Cc1ccc(Cl)cc1` (stereo not drawn) [Compound 35], 100 to 1000 nM; for `O=C(CCc1ccc(Cl)nc1)Nc1ccc2c(c1)COc1cnccc1-2` [Compound 26], less than 100 nM.
On the same count and under the same terms, for `O=C(CCc1ccc2c(c1)OCO2)Nc1ccc2c(c1)COc1cnccc1-2` [Compound 20] the value was less than 100 nM; for `C#Cc1ccc(CCC(=O)Nc2ccc3c(c2)COc2cnccc2-3)cc1` [Compound 148], less than 100 nM.
Same read-out and setting: for `O=C(CCc1cccc(Cl)c1)Nc1ccc2c(c1)COc1cnccc1-2` [Compound 31] the value was less than 100 nM; for `O=C(CCc1ccc([N+](=O)[O-])cc1)Nc1ccc2c(c1)COc1cnccc1-2` [Compound 23], 1000 to 10000 nM.
As for `Cc1c(NC(=O)CCc2ccc(F)cc2)ccc2c1COc1cnccc1-2` [Compound 131, 3-(4-fluorophenyl)-N-(7-methyl-6H-isochromeno[3,4-c]pyridin-8-yl)propanamide], the IC50 in experiment [1] was in the range of 1000 to 10000 nM.
`O=C(CCc1ccc(OC(F)(F)F)cc1)Nc1ccc2c(c1)COc1cnccc1-2` [Compound 24]: the IC50 in experiment [1] lay in the range of 100 to 1000 nM.
In the case of `CC(C)c1cncc2c1-c1ccc(NC(=O)CCc3ccc(F)cc3)cc1CO2` [Compound 141], the IC50 in experiment [1] lay within 1000 to 10000 nM.
`O=C(CCc1ccc2c(c1)CCO2)Nc1ccc2c(c1)COc1cnccc1-2` [Compound 83]: the IC50 in experiment [1] was 100 to 1000 nM.
Turning to `O=C(CCc1ccc2ccccc2c1)Nc1ccc2c(c1)COc1cnccc1-2` [Compound 81], the IC50 in experiment [1] fell in the range of 1000 to 10000 nM.
On the same count and under the same terms, for `N#Cc1c(F)cc(CCC(=O)Nc2ccc3c(c2)COc2cnccc2-3)cc1F` [Compound 44] the value was less than 100 nM; for `O=C1C(Cc2ccc3ocnc3c2)CCN1c1ccc2c(c1)COc1cnccc1-2` (stereo not drawn) [Compound 61], 100 to 1000 nM.
Regarding `CN(Cc1ccc(F)cc1)C(=O)Nc1cnc2c(c1)COc1cnccc1-2` [Compound 153], the IC50 in experiment [1] is less than 100 nM.
On the same count and under the same terms, the value for `NC(Cc1ccc(F)cc1)C(=O)Nc1ccc2c(c1)COc1cnccc1-2` (stereo not drawn) [Compound 52, 2-amino-3-(4-fluorophenyl)-N-(6H-isochromeno[3,4-c]pyridin-8-yl)propanamide] was 100 to 1000 nM; that for `CN(C)c1ccc(CCC(=O)Nc2ccc3c(c2)COc2cnccc2-3)cc1` [Compound 79] was 1000 to 10000 nM; that for `O=C1C(Cc2ccc(C(F)(F)F)cc2)CCN1c1ccc2c(c1)COc1cnccc1-2` (stereo not drawn) [Compound 14] was 1000 to 10000 nM.
In the case of `C=Cc1ccc(CC2CCN(c3ccc4c(c3)COc3cnccc3-4)C2=O)cc1` (stereo not drawn) [Compound 149], the IC50 in experiment [1] lay within 1000 to 10000 nM.
On to `O=C(Cc1ccc(F)cc1)Nc1ccc2c(c1)COc1cnccc1-2` [Compound 51], for which the IC50 in experiment [1] lay within 1000 to 10000 nM.
Still for that read-out and setting: for `O=C(NCc1ccc2c(c1)OCO2)Nc1ccc2c(c1)COc1cnccc1-2` [Compound 64] the value was 1000 to 10000 nM; for `O=C1N(Cc2ccc(F)cc2)CCN1c1ccc2c(c1)COc1cnccc1-2` [Compound 150], less than 100 nM; for `O=C1C(Cc2ccc(F)cc2)CCN1c1ccc2c(c1)COCc1cnccc1-2` (stereo not drawn) [Compound 53, 1-(5,7-dihydrobenzo[5,6]oxepino[3,4-c]pyridin-9-yl)-3-(4-fluorobenzyl)pyrrolidin-2-one], 1000 to 10000 nM.
Consider `O=C(CCc1cccc2ccccc12)Nc1ccc2c(c1)COc1cnccc1-2` [Compound 82], for which the concentration for half-maximal inhibition (IC50) in experiment [1] lay within 1000 to 10000 nM.
`O=C(NCc1cccc(Cl)c1)Nc1ccc2c(c1)COc1cnccc1-2` [Compound 69]: the IC50 in experiment [1] fell in the range of 1000 to 10000 nM.
With `CN(C(=O)CCc1ccc(F)cc1)c1ccc2c(c1)COc1cnccc1-2` [Compound 49, 3-(4-fluorophenyl)-N-(6H-isochromeno[3,4-c]pyridin-8-yl)-N-methylpropanamide], in experiment [1], the IC50 is 1000 to 10000 nM.
